Data set [1] concerns rat aortic rings. Particulars: literature, Offertaler et al. 2003; cited from earlier work.
Data set [2] addresses T1, cannabinoid receptor CB1 (Rattus norvegicus, UniProt P20272).
T1 construct: from tissue
Put plainly: Cannabinoid receptor binding, [3H]HU-243 displacement, synaptosomal membranes. Particulars: data not shown. The method, then:
(§1) The protocol for cannabinoid receptor binding has been previously described [Devane W. A. et al. (1992) Science 258, 1946-1949]. […] Bound and free radioligand were separated by centrifugation. The data were normalized to 100% of specific binding, which was determined with 50 nM unlabeled HU-243. The Ki value was determined using the program GraphPad Prism (Version 3.02) which follows the Cheng-Prusoff equation. A sigmoid dose-response (variable slope) built-in equation in this Prism program was used to fit the curves.

Data set [3] can be described thus: Blood pressure in anesthetized rats after i.v. bolus. The class given is in vivo, Sabra rats. The method, then:
The protocol for testing blood pressure was applied essentially as previously described [Shochina, M. and Horowitz, M. (1989) J. Therm. Biol. 14, 109 113]. Adult male Sabra rats weighing between 225 to 250 g had their femoral vein cannulated for intravenous (i.v.) drug administration. Anesthesia was induced by the intraperitoneal (i.p.) injection of pentobarbital sodium 6%, 60 mg/kg. The femoral artery was cannulated and a catheter (PE 10 cannulae) was connected to a pressure transducer for continuous monitoring of blood pressure with a physiograph (AcKnowledge program). After a 30 minute stabilization period, the animals were injected with either vehicle (sahine:ethanol:Emulphor® 18:1:1) or the drug (Compound 1, as described above, varying from 1 to 10 mg/kg) injected in bolus i.v. in volumes ≧500 μl. The changes in blood pressure were monitored for 60 minutes. […] The hypotensive activity of Compound 1 leads the way to a new class of atypical cannabinoids with no psychotropic activity and with a mechanism of action differing from the anti-hypertensive drugs known to date.

The next data set has as its target T2, cannabinoid receptor CB2 (Homo sapiens, UniProt P34972).
T2 construct: expressed in transfected cells
Nature of the data set: Cannabinoid receptor binding, [3H]HU-243 displacement, transfected cells. Particulars: data not shown. The method, then: as §1

Data set [4] concerns rat aortic rings. Nature of the data set: Relaxation of phenylephrine pre-contracted aortic rings. Details: species or system Sabra rats. Particulars: for maximum vasorelaxation: FIG. 2A. The method, then:
Abdominal aortic rings of male Sabra rats of 300 g average body weight were obtained from the animal facility of the Hebrew University of Jerusalem, campus Ein Kerem, Jerusalem, Israel. The animals were anaesthetized by an intra-peritoneal injection of pentobarbital (50 mg kg^−1). After thoracotomy, the aorta was excised, transferred to a dish filled with Krebs-Henseleit buffer (composition in mM: NaCl 150.0, KCl 5.4, MgSO4 1.17, NaH2 PO4 1.18, NaHCO3 6.0, CaCl2 1.0, HEPES 20.0, glucose 5.5, pH 7.4), cleared of periadventitial tissue, and cut into ring segments (3 mm in length). Only segments of the abdominal aorta were used. Two stainless-steel hooks were carefully passed through the lumen of each ring. One hook was connected to an isometric force transducer (BIOPAC Instruments, Goleta, Calif.) to measure tension in the vessels. The rings were placed in a 10-ml organ bath, gassed with 5% CO2 in O2 and maintained at 37° C. The rings were stretched until an optimal basal tension of 1.0 g. After this tension was achieved they were allowed to equilibrate for 60 minutes with the bath fluid being changed every 15-20 min. Baseline tension usually stabilized within 60 min of mounting, during which time there were four replacements of bathing solution. The segment was then pre-contracted by 5 μM phenylephrine. […] The levels of relaxation were then measured. The endothelial function was assessed by testing the relaxant effect of acetylcholine (10 nM-[…]) on aortic rings pre-contracted with phenylephrine. Failure of acetylcholine to elicit relaxation of aortic rings previously subjected to rubbing of the intimal surface was taken as evidence of endothelium removal. Concentration-response curves were generated by cumulative addition of the agonist. Whenever antagonists (PTX 0.5 μg/ml, SR-141716 A, SR-144528 or 10 μM of 0-1918) were used, they were added 20 min before the agonist (FIG. 2B). All experiments were conducted with aluminum foil-covered organ bath to prevent light-induced degradation of the drugs.

The target in data set [5] is T1, cannabinoid receptor CB1. Particulars: high affinity receptor probe; read-out: dissociation constant; cited from earlier work.

“Also recorded” adds a separate entry of the source.

T1 sequence (P20272 whole entry): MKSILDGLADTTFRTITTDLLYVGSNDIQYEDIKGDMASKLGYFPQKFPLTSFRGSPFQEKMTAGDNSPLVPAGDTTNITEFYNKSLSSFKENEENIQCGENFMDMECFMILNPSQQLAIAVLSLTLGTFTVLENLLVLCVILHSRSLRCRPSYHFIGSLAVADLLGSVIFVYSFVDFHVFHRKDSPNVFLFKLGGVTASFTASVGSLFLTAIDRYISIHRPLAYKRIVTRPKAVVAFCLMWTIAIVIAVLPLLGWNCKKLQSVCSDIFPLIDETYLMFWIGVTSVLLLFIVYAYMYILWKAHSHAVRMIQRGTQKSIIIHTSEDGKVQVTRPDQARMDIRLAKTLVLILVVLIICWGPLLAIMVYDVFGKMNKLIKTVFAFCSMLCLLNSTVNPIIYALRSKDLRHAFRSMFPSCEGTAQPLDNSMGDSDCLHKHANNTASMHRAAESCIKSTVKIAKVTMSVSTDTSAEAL
T2 sequence (P34972 whole entry): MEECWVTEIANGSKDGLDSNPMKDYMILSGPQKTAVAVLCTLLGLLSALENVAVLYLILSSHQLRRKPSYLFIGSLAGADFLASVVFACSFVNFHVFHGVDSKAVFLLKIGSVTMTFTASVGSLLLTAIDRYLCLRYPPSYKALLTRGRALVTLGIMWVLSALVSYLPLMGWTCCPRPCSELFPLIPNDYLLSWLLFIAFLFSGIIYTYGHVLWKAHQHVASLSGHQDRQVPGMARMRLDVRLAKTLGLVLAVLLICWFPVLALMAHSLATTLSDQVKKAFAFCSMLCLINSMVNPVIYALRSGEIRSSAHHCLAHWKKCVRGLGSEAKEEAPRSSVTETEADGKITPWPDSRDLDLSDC

Consider `C=C(C)[C@@H]1CCC(C)=C[C@H]1c1c(O)cc(O)cc1CCCCC` (relative stereo) [Abn-CBD, (−)-4-(3-3,4-trans-p-menthadien-1,8)-yl-olivetol], for which the “antagonism by O-1918” value in the data set with rat aortic rings [1] was “antagonized by 0-1918”.
On to `CCCCCCC(C)(C)c1cc(O)c(C/C=C(\C)CCC=C(C)C)c(O)c1` [Compound 1, 2-geranyl-5-(1,1-dimethylheptyl)-resorcinol], for which the “binding to CB1” value at cannabinoid receptor CB1 [2] is “no binding”. The “effect on blood pressure (BP)” value in data set [3] (2.5 mg/kg i.v., FIG. 1) is on record as “Reduction in blood pressure is already observed”; in data set [3] (5 mg/kg i.v.) it was “caused hypotension”; in data set [3] (5 mg/kg i.v., listed as CBG-DMH), “the effect becomes much more pronounced”. Also, the “change in heart rate” value in data set [3] (5 mg/kg i.v.) is “without causing change in the heart rate”. Besides, in data set [3] (1 to 10 mg/kg bolus i.v., FIG. 1), the “mean systolic blood pressure over 60 minutes” value is “clear reduction of the systolic blood pressure”. The “antagonism of hypotensive effect by CBD” value in data set [3] (CBD in similar doses) is on record as “antagonized by CBD”. At cannabinoid receptor CB2, the “binding to CB2” value was “no binding”. Also, in the data set with rat aortic rings [4] (10 μM O-1918 added 20 min before agonist, FIG. 2B, listed as CBG-DMH), the “antagonism of relaxation by O-1918” value is reported as “did not result in antagonism; also recorded: does not antagonize”. For the same compound, in the data set on rat aortic rings [4] (cumulative doses, 5 μM phenylephrine pre-contraction), the “relaxation of pre-contracted segments” value is “led to relaxation of the contracted segments”. For the same compound, the values for the maximum vasorelaxation in the data set with rat aortic rings [4] (denuded artery) and in the data set with rat aortic rings [4] (intact artery) were 25% and 55%, respectively. Further, the “aortic vasorelaxant effect in presence of pertussis toxin” value in the data set with rat aortic rings [4] (pertussis toxin 0.5 μg/ml, data not shown) was “inhibited in the presence of pertussis toxin”. In addition, the vasodilator function entry in the data set with rat aortic rings [4] (preliminary data) is reported as “functions as a vasodilator”.
`CCCCCCC(C)(C)c1cc(O)c2c(c1)OC(C)(C)[C@@H]1CC[C@@H](CO)C[C@@H]21` [[^3H]HU-243]: at cannabinoid receptor CB1 [5], the Kd was 45 pM.

Values taken from patent US20080275135A1, “Resorcinol Derivatives and Their Use for Lowering Blood Pressure” (priority 2004, published 2008).
